In the supplement of paper PMC10307832:

Compound: CN(C)C/C=C/C(=O)Nc1cc2c(Nc3ccc(F)c(Cl)c3)ncnc2cc1O[C@H]1CCOC1 [Afatinib]
Assay: relative viability (nuclei count vs DMSO), 5 days (fraction); higher = more cells survive
Outline: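 Nuclei counted with MetaXpress define viability as the ratio of treated to vehicle wells, given as a median across plates. The lung cancer cell lines were in 1536-well plates, pinned with five √10-spaced library-drug doses and imaged at 4× after 5 days and Hoechst staining. Plates passed with control CV below 25% and at least one doubling.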

Row | Cell Line | relative viability (0.005 µM) | relative viability (0.01581 µM) | relative viability (0.05 µM) | relative viability (0.1581 µM) | relative viability (0.5 µM)
1 | 201T | 1.01 | 0.942 | 0.944 | 0.92 | 0.956
2 | A549 | 0.969 | 1 | 0.938 | 0.867 | 0.858
3 | A-427 | 1.05 | 0.918 | 0.99 | 1.02 | 1.01
4 | ABC-1 | 0.876 | 0.77 | 0.876 | 0.874 | 0.912
5 | BEN | 1.04 | 0.897 | 1.05 | 1.09 | 1.06
6 | CAL-12T | 1 | 0.843 | 0.748 | 0.489 | 0.654
7 | COR-L23 | 1.08 | 0.944 | 1.11 | 1.04 | 1.01
8 | COR-L 105 | 0.522 | 0.387 | 0.45 | 0.287 | 0.309
9 | Calu-6 | 1.09 | 1 | 1.02 | 0.997 | 0.986
10 | ChaGo-K-1 | 1.07 | 1 | 0.996 | 0.977 | 0.999
11 | EBC-1 | 1.02 | 0.976 | 1.02 | 0.969 | 1.01
12 | EKVX | 0.779 | 0.718 | 0.51 | 0.292 | 0.334
13 | EMC-BAC-2 | 1.12 | 0.821 | 1.14 | 1.01 | 1.02
14 | EPLC-272H | 0.915 | 0.687 | 0.831 | 0.718 | 0.718
15 | H3255 | 0.418 | 0.237 | 0.244 | 0.244 | 0.26
16 | HARA | 0.947 | 0.55 | 0.471 | 0.62 | 0.597
17 | HCC-15 | 1.04 | 1.06 | 1.04 | 0.979 | 0.999
18 | HCC-44 | 1.08 | 1 | 1.01 | 1.02 | 0.982
19 | HCC-78 | 1.07 | 0.89 | 0.898 | 0.791 | 0.815
20 | HCC-366 | 1.03 | 1.04 | 1.03 | 0.985 | 0.989

Row | Cell Line | relative viability (0.005 µM) | relative viability (0.01581 µM) | relative viability (0.05 µM) | relative viability (0.1581 µM) | relative viability (0.5 µM)
21 | HCC-827 | 0.172 | 0.169 | 0.212 | 0.175 | 0.162
22 | HOP-62 | 1.12 | 0.989 | 1.05 | 1.03 | 1.08
23 | IA-LM | 0.925 | 0.868 | 0.905 | 0.883 | 0.871
24 | LC-2-ad | 1.06 | 0.957 | 1.04 | 0.956 | 1.05
25 | LCLC-97TM1 | 1.1 | 0.878 | 1.01 | 0.993 | 0.943
26 | LCLC-103H | 0.962 | 0.945 | 0.974 | 0.945 | 1.03
27 | LK-2 | 1.25 | 0.91 | 0.926 | 0.977 | 0.956
28 | LOU-NH91 | 0.784 | 0.813 | 0.887 | 0.73 | 0.791
29 | LU99A | 1.15 | 0.984 | 0.94 | 0.924 | 0.975
30 | LXF-289 | 1.01 | 0.97 | 0.947 | 0.94 | 0.94
31 | NCI-H23 | 1.1 | 0.976 | 0.922 | 0.97 | 0.792
32 | NCI-H322M | 0.705 | 0.495 | 0.533 | 0.545 | 0.419
33 | NCI-H358 | 0.825 | 0.566 | 0.455 | 0.282 | 0.302
34 | NCI-H441 | 1.08 | 0.997 | 1.18 | 0.982 | 0.948
35 | NCI-H460 | 1.01 | 1 | 0.996 | 1.01 | 1
36 | NCI-H520 | 1.08 | 0.978 | 0.995 | 1 | 0.96
37 | NCI-H522 | 0.929 | 0.785 | 0.703 | 0.786 | 0.735
38 | NCI-H596 | 1.09 | 0.913 | 0.933 | 0.936 | 0.928
39 | NCI-H647 | 0.999 | 0.878 | 0.998 | 0.968 | 1.04
40 | NCI-H650 | 1.06 | 0.974 | 1.07 | 0.89 | 0.875
